# Biological target: T1, Proteinase K (Parengyodontium album, UniProt P06873)
# T1 construct: purchased RayBiotech, Norcross, GA, USA
# Assay: Peptide degradation by proteinase K
# Assay type: in vitro ADME
# Conditions: proteinase K 0.05 mg ml^-1, 37°C, 4 h, D-RADA16 0.2 mg ml^-1, intact peptide by HPLC (C18), three replicates
# Method: Proteinase K solution (RayBiotech, Norcross, GA, USA) (0.05 mg ml^−1) was added in D-RADA16 and nHA/PA66/D-RADA16 groups, respectively. All samples were incubated at 37°C, and 400 µl aliquots were removed at various time points (1, 2, 4, 6, 8, 12, 24 and 48 h). The enzymatic reaction was terminated by the addition of phenylmethanesulfonyl fluoride (working concentration: 0.1 to 1 mM) and the concentration of the intact peptide were analysed by HPLC (LCMS-2020; Shimadzu, Kyoto, Japan) under the following conditions: Venusil XBP C18, 5 µm, 4.6 × 50 mm (Agela, Tianjin, China); sample injection volume: 100 µl; gradient elution: A, 0.035% trifluoroacetic acid (TFA) in water; and B, 0.035% TFA in acetonitrile/water (80 : 20, vol/vol). A gradient of 10–100% B in 10 min was conducted. The experiment was conducted in three replicates.
# Proteinase K, a highly non-specific proteolytic enzyme, was used to examine the stability of D-RADA16 in the various composites. The concentration of each D-RADA16 was set to 0.2 mg ml^−1. And after 4 h, only 30–40% of the peptide remained in the control samples, whereas over 50% of the peptide still remained in the experimental samples. Similar results were observed after 24 and 48 h (figure 1d).
# T1 sequence (P06873 106-384): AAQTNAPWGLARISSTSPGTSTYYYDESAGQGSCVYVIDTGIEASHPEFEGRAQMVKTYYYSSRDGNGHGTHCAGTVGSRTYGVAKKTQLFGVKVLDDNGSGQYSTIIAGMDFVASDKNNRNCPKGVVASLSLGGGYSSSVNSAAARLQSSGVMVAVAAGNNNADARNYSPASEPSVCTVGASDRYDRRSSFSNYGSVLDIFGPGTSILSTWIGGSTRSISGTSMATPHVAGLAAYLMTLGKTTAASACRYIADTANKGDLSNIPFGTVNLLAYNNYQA
smiles,measurement,value
"CC(=O)N[C@H](CCCNC(=N)N)C(=O)N[C@H](C)C(=O)N[C@H](CC(=O)O)C(=O)N[C@H](C)C(=O)N[C@H](CCCNC(=N)N)C(=O)N[C@H](C)C(=O)N[C@H](CC(=O)O)C(=O)N[C@H](C)C(=O)N[C@H](CCCNC(=N)N)C(=O)N[C@H](C)C(=O)N[C@H](CC(=O)O)C(=O)N[C@H](C)C(=O)N[C@H](CCCNC(=N)N)C(=O)N[C@H](C)C(=O)N[C@H](CC(=O)O)C(=O)N[C@H](C)C(N)=O [D-RADA16, Ac-RADARADARADARADA-CONH2]",intact peptide remaining,30–40%

# Reference: paper PMC7211882, “Controlled release of basic fibroblast growth factor from a peptide biomaterial for bone regeneration” (Royal Society Open Science, 2020)
